Each structure is given as a SMILES string.

Series [1] is described as follows: Sensory panel, malty aroma of cocoa-malt-based beverage spiked with oxazoline. The note with it: cocoa-malt-based beverage 7.5 g + 10 mg oxazoline. The procedure:
(§1) Cocoa-malt-based beverage (7.5 g) was weighted into a Pyrex bottle. The product was spiked with 2-(2-methylpropyl)-5-methyl-3-oxazoline (10 mg) and the sample was then reconstituted in 100 mL of cold (10° C.) or warm (60° C.) semi-skimmed milk. Samples without addition of oxazoline were prepared analogously and used as references. The impact of the addition of the oxazoline on the intensity of malty aroma (characteristic aroma of 3-methylbutanal) was evaluated by a sensory panel. Comparative profiling procedure was conducted using an 11-point scale ranging from −5 to +5. Assessors were asked to score the sample containing oxazoline against the reference. Reference product containing no added oxazoline was arbitrary positioned on the zero of the scale.

The nature of series [2]: Sensory panel, malty aroma of cereal based pap spiked with oxazoline. The following applies: cereal powder 12.5 g + 10 mg oxazoline, scale −5 to +5. The procedure: as §1
Cereal powder (12.5 g) was weighted into a plastic dish. The product was spiked with 2-(2-methylpropyl)-5-methyl-3-oxazoline (10 mg) and the sample was then reconstituted in 100 ml of warm (60° C.) water or semi-skimmed milk. Sample without addition of oxazoline was prepared analogously and used as reference. The impact of the addition of the oxazoline on the intensity of malty aroma (characteristic aroma of 3-methylbutanal) was evaluated by a sensory panel as described in example 9.

A short description of series [3]: SPME-GCxGC-TOFMS of 3-methylbutanal in coffee mix spiked with oxazoline. Format: physicochemical. The procedure: (§2) Coffee mix powder (16 g) was weighted into a Pyrex bottle. The product was spiked with 2-(2-methylpropyl)-5-methyl-3-oxazoline (10 mg) and the sample was then reconstituted in 130 ml of hot (80° C.) water. Sample without addition of oxazoline was prepared analogously and used as reference. The impact of the addition of the oxazoline on the intensity of malty aroma (characteristic aroma of 3-methylbutanal) was evaluated by a sensory panel as described in example 9. […] To further substantiate the sensory results, the sample was analyzed by SPME-GCxGC-TOFMS.
The results (Table 7) indicate that the conversion of oxazoline to Strecker aldehyde is very high and reaches 77% in the analysed coffee mix sample (incubation 60° C./15 min).

A short description of series [4]: Impact of pH value on release of Strecker aldehyde from 3-oxazoline precursor in buffer solution at 37° C. Format: physicochemical. The procedure: (§3) 2-(2-Methylpropyl)-5-methyl-3-oxazoline (dissolved in pentane/diethyl ether; 2 mL) was added to ethanol (0.5 mL). The pentane/diethyl ether was carefully evaporated, and finally made up to 5 mL with ethanol. […] A control experiment was performed with 2-(2-methylpropyl)-5-methyl-3-oxazoline and the respective standard without adding the respective buffer solution. For headspace measurements, the samples were directly subjected to HS-GC-MS. For liquid measurements, the samples were cooled in an ice bath and extracted with diethyl ether (3×15 mL; liquid-liquid extraction). The organic phases were combined, dried over anhydrous sodium sulphate, and the solvent was distilled off (20° C., 500 mbar) to about 4 mL. An aliquot (2 μL) was used for the stable isotope dilution assays ((GC-) GC-MS).
as §3, with “2-Methylphenyl-5-methyl-3-oxazoline” for “2-(2-Methylpropyl)-5-methyl-3-oxazoline”, “2-methylphenyl-5-methyl-3-oxazoline” for “2-(2-methylpropyl)-5-methyl-3-oxazoline”

A short description of series [5]: Sensory panel, malty aroma of coffee mix beverage spiked with oxazoline. The note with it: coffee mix powder 16 g + 10 mg oxazoline, 130 ml hot (80° C.) water; scale −5 to +5, reference at zero. The method, then: as §1, §2
The nature of series [6]: Release of Strecker aldehyde from 3-oxazoline precursor stirred in water at 37° C. (stable isotope dilution, HS-GC-MS / GC-MS). Format: physicochemical. The note with it: 5 min after addition of water at 37° C.
Series [7] in a line: Headspace GC-MS release of Strecker aldehydes from spiked chocolate on addition of saliva. It counts as physicochemical. The following applies: headspace injection; for Concentration in “release sample” (after addition of saliva): spiked chocolate 2 g + saliva 2 mL, 5 min at 37° C.; for Concentration in blank sample (prior addition of saliva): spiked chocolate 2 g melted at 37° C. The method, then: To further confirm the PTR-MS data, all experiments are repeated using a headspace GC-MS system. Commercial chocolate (50% of cocoa content) was frozen in liquid nitrogen and ground to a powder using a mixer. An aliquote (25 g) was melted at 35° C. using a water bath and [^2H6]-methylpropanal, [^2H2]-3-methylbutanal as well as [^13C2]-phenylacetaldehyde were added. After stirring for 5 min, the chocolate was cooled to room temperature and used for all further headspace experiments (“spiked chocolate”). The newly spiked chocolate (2 g) was weighed into a headspace vial (10 mL; sealed with a gastight septum) containing a stirring bar. The chocolate was melted at 37° C. for 5 min under stirring. Then, the first injection (1 mL) was done at 37° C. used as blank sample. Afterwards, the sample was cooled to approx. 16° C. After 30 min, saliva (2 mL) was added through the septum via a syringe, and the sample was again warmed to 37° C. under stirring. After a further 5 min, the second injection (1 mL) was done again at 37° C. (“release sample”). All experiments were done in triplicates. 2-Methylbutanal was quantified using [^2H2]-3-methylbutanal.

Series [8] can be described thus: PTR-MS release of Strecker aldehydes from spiked chocolate on addition of water or saliva. It counts as physicochemical. The note with it: spiked chocolate 5 g, water (5 mL, pH 4) or saliva (5 mL), 37° C.; FIG. 2, FIG. 3. The procedure: Commercial chocolate (50% of cocoa content) was frozen in liquid nitrogen and ground to a powder using a mixer. An aliquote (50 g) was melted at 35° C. using a water bath and [^2H2]-3-methylbutanal as well as [^13C2]-phenylacetaldehyde were added. After stirring for 5 min, the chocolate was cooled to room temperature and used for all further PTR-MS experiments (“spiked chocolate”).
5.0 g of spiked chocolate was weighed into an iodine flask (200 mL; sealed with a gastight septum) containing a stirring bar. The chocolate was melted at 37° C. for 5 min under stirring. Afterwards, the flask was connected to a PTR-MS instrument via a peek capillary (experiments were done at 37° C.). After defined time (details are given in the respective figures via number of cycles), water (5 mL, pH 4) or saliva (5 mL), respectively, was singly added through the septum via a syringe.
As blank, methylpropanal (2.5 μg), 3-methylbutanal (6.25 μg), phenylacetaldehyde (25 μg), [^2H2]-3-methylbutanal (4.3 μg), and [^13C2]-phenylacetaldehyde (20 μg) were added to sunflower oil (10 g) in an iodine flask (200 mL). Following parameters are used for PTR-MS measurement: inlet temperature 120° C., chamber temperature 80° C., inlet flow 70 mL/min. The mass traces and the dwell time used to monitor Strecker aldehydes are shown below: […]

The mark [9] stands for this setting: pH 5, Control without addition of buffer solution.
Where [10] appears, read: pH 7, Control without addition of buffer solution.
The mark [11] stands for this setting: pH 9, Control without addition of buffer solution.

Regarding `CC(C)CC1N=CC(C)O1` (stereo not drawn) [2-(2-methylpropyl)-5-methyl-3-oxazoline], the “malty note score against reference” value in series [1] (cold (10° C.) semi-skimmed milk, 11-point scale −5 to +5, reference at zero) worked out at 3.6; in series [1] (warm (60° C.) semi-skimmed milk (hot milk), scale −5 to +5, reference at zero), 3.3; in series [2] (100 ml warm (60° C.) semi-skimmed milk), 1.2; in series [2] (100 ml warm (60° C.) water), 1.7; in series [5], 3.5. Moreover, the “Theoretical release from spike, 3-methylbutanal (ug/vial)” value in series [3] was determined as 244 ug/vial. For the same molecule, the “Yield of conversion of oxazoline to Strecker aldehyde” value in series [3] (incubation 60° C./15 min) worked out at 77%. Moreover, the “3-methylbutanal (ug/vial), sample spiked with oxazoline” value in series [3] (incubation 60° C./15 min, non-spiked reference 28) is on record as 215 ug/vial. For the same molecule, the “3-methylbutanal (mol %) generated from precursor” value is recorded as 0.5 mol % in series [4] (setting [9]); 95.1 mol % in series [4] (pH 5 buffer, 10 min, 37° C.); 98.9 mol % in series [4] (pH 5 buffer, 60 min, 37° C.); 0.3 mol % in series [4] (setting [10]); 54.8 mol % in series [4] (pH 7 buffer, 10 min, 37° C.); 97.9 mol % in series [4] (pH 7 buffer, 60 min, 37° C.). Moreover, the “3-methylbutanal (mol %) generated from precursor” value in series [4] (setting [11]) was determined as 0.3 mol %; in series [4] (pH 9 buffer, 10 min, 37° C.), 9.0 mol %; in series [4] (pH 9 buffer, 60 min, 37° C.) it was 35.7 mol %. Also, the “3-methylbutanal released / precursor converted to Strecker aldehyde” value in series [6] was “about 75%”.
For the molecule `Cc1ccccc1C1N=CC(C)O1` (stereo not drawn) [2-methylphenyl-5-methyl-3-oxazoline], the “phenylacetaldehyde (mol %) generated from precursor” value in series [4] (setting [9]) stood at 0.4 mol %; in series [4] (pH 5 buffer, 5 min, 37° C.) it was 41.2 mol %; in series [4] (pH 5 buffer, 15 min, 37° C.), 72.1 mol %; in series [4] (pH 5 buffer, 30 min, 37° C.) it was 87.7 mol %; in series [4] (setting [10]) it was 0.3 mol %; in series [4] (pH 7 buffer, 5 min, 37° C.), 7.7 mol %. In addition, the “phenylacetaldehyde (mol %) generated from precursor” value in series [4] (pH 7 buffer, 15 min, 37° C.) is recorded as 18.0 mol %; in series [4] (pH 7 buffer, 30 min, 37° C.) it was 30.2 mol %; in series [4] (setting [11]), 0.3 mol %; in series [4] (pH 9 buffer, 5 min, 37° C.) it was 4.9 mol %; in series [4] (pH 9 buffer, 15 min, 37° C.), 7.1 mol %; in series [4] (pH 9 buffer, 30 min, 37° C.), 14.3 mol %.
For the molecule `CC(C)C=O` [methylpropanal], in series [7], the “Concentration in “release sample” (after addition of saliva)” value is 1103 μg/kg of chocolate and the “Concentration in blank sample (prior addition of saliva)” value is listed as 25.4 μg/kg of chocolate. In addition, the “release from spiked chocolate after addition of water or saliva (PTR-MS)” value in series [8] is on record as “clearly increased”.
The matching figures for `O=CCc1ccccc1` [phenylacetaldehyde]: “< LoD (due to headspace”, “< LoD (due to headspace” and “clearly increased”.
The matching figures for `CC(C)CC=O` [3-methylbutanal]: 4456 μg/kg of chocolate, 502 μg/kg of chocolate and “clearly increased”.
The like results for `CCC(C)C=O` (stereo not drawn) [2-methylbutanal] were, in that order, 3009 μg/kg of chocolate, 354 μg/kg of chocolate and “clearly increased”.

The values above are taken from patent US20150044346A1, “USE OF OXAZOLINES AS AROMA/FLAVOUR PRECURSORS” (NESTEC S.A., priority 2012, published 2015).
